# According to ChEMBL document CHEMBL4118122, “Identification and biological evaluation of thiazole-based inverse agonists of RORγt” (Bioorg Med Chem Lett, 2018):
# Columns and labels:
# [1] = target: Adenosine receptor A3 (Homo sapiens) (UniProt P0DMS8); assay: Displacement of [125I]AB-MECA from human recombinant adenosine A3 receptor at 10 uM after 120 mins by scintillation counting analysis relative to control
# [2] = target: C-X-C chemokine receptor type 2 (Homo sapiens) (UniProt P25025); assay: Displacement of [125I]IL-8 from human recombinant CXCR2 receptor at 10 uM after 60 mins by scintillation counting analysis relative to control
# Histamine H2 receptor = Histamine H2 receptor (Homo sapiens, UniProt P25021); assay: Displacement of [125I]APT from human recombinant histamine H2 receptor at 10 uM after 120 mins by scintillation counting analysis relative to control
# [3] = target: Muscarinic acetylcholine receptor M3 (Homo sapiens, UniProt P20309); assay: Displacement of [3H]4-DAMP from human recombinant M3 receptor at 10 uM after 60 mins by scintillation counting analysis relative to control
# [4] = target: Neurotensin receptor type 1 (Homo sapiens, UniProt P30989); assay: Displacement of [125I]Tyr3-neurotensin from human recombinant NTS1 receptor at 10 uM after 120 mins by scintillation counting analysis relative to control
# [5] = target: 5-hydroxytryptamine receptor 1B (Rattus norvegicus) (UniProt P28564); assay: Displacement of [125I]-CYP from rat brain 5-HT1B receptor at 10 uM after 120 mins by scintillation counting analysis relative to control
# [6] = target: Vasoactive intestinal polypeptide receptor 1 (Homo sapiens) (UniProt P32241); assay: Displacement of [125I]VIP from human recombinant VPAC1 receptor at 10 uM after 60 mins by scintillation counting analysis relative to control
# [7] = target: Adenosine receptor A1 (Homo sapiens) (UniProt P30542); assay: Displacement of [3H]-DPCPX from human recombinant adenosine A1 receptor at 1 uM after 60 mins by scintillation counting analysis relative to control
# D(1A) dopamine receptor = D(1A) dopamine receptor (Homo sapiens, UniProt P21728); assay: Displacement of [3H]-SCH 23390 from human recombinant dopamine D1 receptor at 1 uM after 60 mins by scintillation counting analysis relative to control
# [8] = target: C-C chemokine receptor type 1 (Homo sapiens) (UniProt P32246); assay: Displacement of [125I]MIP-1alpha from human recombinant CCR1 receptor at 1 uM after 120 mins by scintillation counting analysis relative to control
# [9] = target: Muscarinic acetylcholine receptor M1 (Homo sapiens) (UniProt P11229); assay: Displacement of […] from human recombinant M1 receptor at 1 uM after 60 mins by scintillation counting analysis relative to control
# [10] = target: 5-hydroxytryptamine receptor 1A (Homo sapiens) (UniProt P08908); assay: Displacement of [3H]8-OH-DPAT from recombinant human 5-HT1A receptor at 1 uM after 60 mins by scintillation counting analysis relative to control
# [11] = target: 5-hydroxytryptamine receptor 6 (Homo sapiens, UniProt P50406); assay: Displacement of [3H]LSD from human recombinant 5-HT6 receptor at 1 uM after 120 mins by scintillation counting analysis relative to control
# Vasopressin V1a receptor = Vasopressin V1a receptor (Homo sapiens, UniProt P37288); assay: Displacement of [3H]AVP from human recombinant V1a receptor at 1 uM after 60 mins by scintillation counting analysis relative to control
# Rattus norvegicus = species on record: Rattus norvegicus; assay: Displacement of [3H]batrachotoxinin from rat brain voltage gated sodium ion channel site 2 at 1 uM after 60 mins by scintillation counting analysis relative to control
# [12] = target: Type-1 angiotensin II receptor (Homo sapiens, UniProt P30556); assay: Displacement of [125I][Sar1,Ile8]-AT-II from human recombinant AT1 receptor after 120 mins by scintillation counting analysis
# D(2) dopamine receptor = D(2) dopamine receptor (Homo sapiens, UniProt P14416); assay: Displacement of [3H]7-OH-DPAT from human recombinant dopamine D2S receptor after 60 mins by scintillation counting analysis
# Histamine H1 receptor = Histamine H1 receptor (Homo sapiens, UniProt P35367); assay: Displacement of [3H]pyrilamine from human recombinant histamine H1 receptor after 60 mins by scintillation counting analysis
# [13] = target: Small conductance calcium-activated potassium channel (Rattus norvegicus, UniProt P70604+P70606+P70605); assay: Displacement of [125I]apamin from rat brain SkCa channel after 60 mins by scintillation counting analysis
# [14] = Displacement of [3H]batrachotoxinin from rat brain voltage gated sodium ion channel site 2 after 60 mins by scintillation counting analysis
# [15] = Binding affinity to GABA-gated chloride channel (unknown origin) by antagonist radioligand binding assay; parameters: species or system Homo sapiens
# [16] = target: Calcium/calmodulin-dependent protein kinase type II subunit alpha (Homo sapiens) (UniProt Q9UQM7); assay: Inhibition of CamK2alpha (unknown origin) at 10 uM in presence of ATP relative to control
# [17] = target: Calcium/calmodulin-dependent protein kinase type II subunit beta (Homo sapiens) (UniProt Q13554); assay: Inhibition of recombinant full length His-tagged human CaMK2beta expressed in baculovirus expression system at 10 uM in presence of ATP relative to control
# [18] = target: Cyclin-dependent kinase 5/CDK5 activator 1 (Homo sapiens) (UniProt Q00535+Q15078); assay: Inhibition of recombinant full length His-tagged human CDK5/p35 expressed in baculovirus expression system at 10 uM in presence of ATP relative to control
# [19] = target: Serine/threonine-protein kinase Chk1 (Homo sapiens) (UniProt O14757); assay: Inhibition of recombinant full length His-tagged human CHK1 expressed in baculovirus expression system at 10 uM in presence of ATP relative to control
# [20] = target: Ephrin type-A receptor 2 (Homo sapiens) (UniProt P29317); assay: Inhibition of recombinant GST-tagged human EPHA2 (560 to 976 residues) cytoplasmic domain expressed in baculovirus expression system at 10 uM in presence of ATP relative to control
# [21] = target: Glycogen synthase kinase-3 beta (Homo sapiens) (UniProt P49841); assay: Inhibition of recombinant full length human His-tagged GSK3beta expressed in baculovirus expression system at 10 uM in presence of ATP relative to control
# [22] = target: Inhibitor of nuclear factor kappa-B kinase subunit beta (Homo sapiens) (UniProt O14920); assay: Inhibition of recombinant full length GST-tagged human IKKbeta expressed in baculovirus expression system at 10 uM in presence of ATP relative to control
# [23] = target: Serine/threonine-protein kinase PAK 3 (Homo sapiens) (UniProt O75914); assay: Inhibition of recombinant full length His-tagged human PAK3 expressed in baculovirus expression system at 10 uM in presence of ATP relative to control
# [24] = target: Serine/threonine-protein kinase PLK1 (Homo sapiens) (UniProt P53350); assay: Inhibition of full length recombinant His-tagged human PLK1 expressed in baculovirus expression system at 10 uM in presence of ATP relative to control
# [25] = Thermodynamic solubility of the compound in 30 mM phosphate buffer at 10 mM at pH 2 after 2 to 5 days by UV-HPLC analysis; format: physicochemical; settings: read-out: Therm_solubility
# [26] = AUC (0 to infinity) in Sprague-Dawley rat at 5 mg/kg, po; format: ADME, organism-based; parameters: dose 5 mg/kg, route oral, time infinity; settings: in vivo
# Calcium/calmodulin-dependent protein kinase type II subunit beta (Homo sapiens), sequence (Q13554 whole entry): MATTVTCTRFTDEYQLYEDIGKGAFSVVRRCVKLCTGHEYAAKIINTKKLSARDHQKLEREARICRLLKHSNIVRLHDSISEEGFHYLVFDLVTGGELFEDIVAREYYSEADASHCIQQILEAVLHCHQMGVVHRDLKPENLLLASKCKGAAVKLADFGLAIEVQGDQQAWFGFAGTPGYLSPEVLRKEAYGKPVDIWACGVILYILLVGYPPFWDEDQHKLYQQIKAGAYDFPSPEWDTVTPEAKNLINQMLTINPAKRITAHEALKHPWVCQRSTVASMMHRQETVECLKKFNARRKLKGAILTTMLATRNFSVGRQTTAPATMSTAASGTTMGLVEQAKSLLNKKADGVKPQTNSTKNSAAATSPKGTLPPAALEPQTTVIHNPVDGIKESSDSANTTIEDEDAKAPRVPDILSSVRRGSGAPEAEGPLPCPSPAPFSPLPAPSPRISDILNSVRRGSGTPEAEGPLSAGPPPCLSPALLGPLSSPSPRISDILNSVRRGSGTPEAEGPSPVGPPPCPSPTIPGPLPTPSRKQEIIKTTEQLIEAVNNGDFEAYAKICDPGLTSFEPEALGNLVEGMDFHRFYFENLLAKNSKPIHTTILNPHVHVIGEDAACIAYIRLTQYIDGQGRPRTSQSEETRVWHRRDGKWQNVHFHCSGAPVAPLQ
# Inhibitor of nuclear factor kappa-B kinase subunit beta (Homo sapiens), sequence (O14920 whole entry): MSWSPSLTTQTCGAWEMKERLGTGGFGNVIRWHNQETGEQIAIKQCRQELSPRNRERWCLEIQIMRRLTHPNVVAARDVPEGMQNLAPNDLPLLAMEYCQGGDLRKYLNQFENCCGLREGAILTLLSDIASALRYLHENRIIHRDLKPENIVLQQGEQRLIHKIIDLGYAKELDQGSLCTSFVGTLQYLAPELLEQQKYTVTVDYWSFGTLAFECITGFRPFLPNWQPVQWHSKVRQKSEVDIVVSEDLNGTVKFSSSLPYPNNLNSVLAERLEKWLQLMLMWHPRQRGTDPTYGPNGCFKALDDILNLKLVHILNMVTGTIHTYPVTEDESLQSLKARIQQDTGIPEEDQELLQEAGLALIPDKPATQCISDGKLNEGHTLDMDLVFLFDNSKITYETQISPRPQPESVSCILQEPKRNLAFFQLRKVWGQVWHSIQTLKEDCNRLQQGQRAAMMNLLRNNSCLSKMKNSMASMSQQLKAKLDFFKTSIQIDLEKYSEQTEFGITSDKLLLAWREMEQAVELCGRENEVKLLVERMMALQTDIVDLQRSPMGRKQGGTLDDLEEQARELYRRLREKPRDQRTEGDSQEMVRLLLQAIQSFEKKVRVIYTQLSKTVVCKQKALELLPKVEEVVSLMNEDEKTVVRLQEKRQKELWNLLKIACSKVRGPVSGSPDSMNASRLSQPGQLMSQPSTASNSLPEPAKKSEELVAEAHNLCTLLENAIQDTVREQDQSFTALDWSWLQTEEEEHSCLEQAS
# Histamine H2 receptor, sequence (P25021 whole entry): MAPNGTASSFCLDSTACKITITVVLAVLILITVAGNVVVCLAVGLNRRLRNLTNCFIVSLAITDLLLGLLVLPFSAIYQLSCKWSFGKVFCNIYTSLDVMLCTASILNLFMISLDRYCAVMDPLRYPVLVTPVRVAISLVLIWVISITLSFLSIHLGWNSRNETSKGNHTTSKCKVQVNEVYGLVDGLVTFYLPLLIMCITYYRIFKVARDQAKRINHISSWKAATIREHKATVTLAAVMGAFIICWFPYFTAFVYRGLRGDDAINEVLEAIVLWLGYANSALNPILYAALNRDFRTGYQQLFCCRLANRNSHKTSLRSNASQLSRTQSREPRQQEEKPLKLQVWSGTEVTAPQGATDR
# Adenosine receptor A3 (Homo sapiens), sequence (P0DMS8 whole entry): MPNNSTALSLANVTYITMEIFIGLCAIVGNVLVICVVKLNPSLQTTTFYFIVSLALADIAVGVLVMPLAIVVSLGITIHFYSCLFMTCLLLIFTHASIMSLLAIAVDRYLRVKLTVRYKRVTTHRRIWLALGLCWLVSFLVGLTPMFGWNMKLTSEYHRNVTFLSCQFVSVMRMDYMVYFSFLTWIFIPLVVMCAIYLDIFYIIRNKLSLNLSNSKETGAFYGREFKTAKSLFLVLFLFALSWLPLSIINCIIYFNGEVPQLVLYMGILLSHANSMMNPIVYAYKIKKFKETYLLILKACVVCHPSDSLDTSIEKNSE
# Neurotensin receptor type 1, sequence (P30989 whole entry): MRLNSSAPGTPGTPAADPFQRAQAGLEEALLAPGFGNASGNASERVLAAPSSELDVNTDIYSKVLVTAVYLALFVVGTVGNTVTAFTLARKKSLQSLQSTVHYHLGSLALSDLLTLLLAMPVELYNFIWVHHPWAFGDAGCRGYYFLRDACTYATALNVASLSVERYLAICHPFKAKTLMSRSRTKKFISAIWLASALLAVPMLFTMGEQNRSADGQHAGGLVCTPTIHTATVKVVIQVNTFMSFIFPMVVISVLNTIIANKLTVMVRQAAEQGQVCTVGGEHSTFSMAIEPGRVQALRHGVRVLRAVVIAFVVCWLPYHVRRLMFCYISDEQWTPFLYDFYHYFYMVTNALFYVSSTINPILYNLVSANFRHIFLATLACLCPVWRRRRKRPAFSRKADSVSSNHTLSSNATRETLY
# Muscarinic acetylcholine receptor M3, sequence (P20309 whole entry, looked up): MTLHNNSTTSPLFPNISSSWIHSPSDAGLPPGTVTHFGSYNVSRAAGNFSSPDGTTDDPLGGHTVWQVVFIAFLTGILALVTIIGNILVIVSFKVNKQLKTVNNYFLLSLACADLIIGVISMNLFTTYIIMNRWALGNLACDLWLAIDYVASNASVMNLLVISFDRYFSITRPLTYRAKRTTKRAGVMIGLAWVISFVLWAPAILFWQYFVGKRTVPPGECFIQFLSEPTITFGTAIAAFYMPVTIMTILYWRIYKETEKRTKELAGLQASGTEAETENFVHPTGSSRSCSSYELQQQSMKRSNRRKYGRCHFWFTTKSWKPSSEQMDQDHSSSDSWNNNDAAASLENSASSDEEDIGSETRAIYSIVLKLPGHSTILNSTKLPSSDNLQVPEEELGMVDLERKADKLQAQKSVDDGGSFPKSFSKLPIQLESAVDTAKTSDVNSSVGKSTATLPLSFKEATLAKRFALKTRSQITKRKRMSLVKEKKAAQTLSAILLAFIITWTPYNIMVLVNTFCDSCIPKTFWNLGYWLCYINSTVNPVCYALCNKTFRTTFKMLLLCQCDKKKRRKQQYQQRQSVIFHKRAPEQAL
# Serine/threonine-protein kinase PAK 3 (Homo sapiens), sequence (O75914 whole entry, looked up): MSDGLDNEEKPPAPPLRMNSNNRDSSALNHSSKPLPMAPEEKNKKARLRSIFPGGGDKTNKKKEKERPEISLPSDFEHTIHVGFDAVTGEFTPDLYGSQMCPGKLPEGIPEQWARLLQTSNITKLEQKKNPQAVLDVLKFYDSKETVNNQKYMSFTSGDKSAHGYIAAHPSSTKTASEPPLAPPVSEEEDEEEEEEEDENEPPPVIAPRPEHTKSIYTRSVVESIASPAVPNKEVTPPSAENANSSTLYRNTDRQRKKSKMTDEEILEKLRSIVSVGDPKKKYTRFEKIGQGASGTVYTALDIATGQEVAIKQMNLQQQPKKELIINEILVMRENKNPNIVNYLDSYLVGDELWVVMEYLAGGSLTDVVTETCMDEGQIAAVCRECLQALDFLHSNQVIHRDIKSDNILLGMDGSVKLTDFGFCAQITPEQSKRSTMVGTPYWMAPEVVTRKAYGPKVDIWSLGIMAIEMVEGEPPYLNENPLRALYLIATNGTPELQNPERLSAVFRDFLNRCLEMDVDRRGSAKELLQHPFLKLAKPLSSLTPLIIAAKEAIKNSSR
# D(2) dopamine receptor, sequence (P14416 whole entry): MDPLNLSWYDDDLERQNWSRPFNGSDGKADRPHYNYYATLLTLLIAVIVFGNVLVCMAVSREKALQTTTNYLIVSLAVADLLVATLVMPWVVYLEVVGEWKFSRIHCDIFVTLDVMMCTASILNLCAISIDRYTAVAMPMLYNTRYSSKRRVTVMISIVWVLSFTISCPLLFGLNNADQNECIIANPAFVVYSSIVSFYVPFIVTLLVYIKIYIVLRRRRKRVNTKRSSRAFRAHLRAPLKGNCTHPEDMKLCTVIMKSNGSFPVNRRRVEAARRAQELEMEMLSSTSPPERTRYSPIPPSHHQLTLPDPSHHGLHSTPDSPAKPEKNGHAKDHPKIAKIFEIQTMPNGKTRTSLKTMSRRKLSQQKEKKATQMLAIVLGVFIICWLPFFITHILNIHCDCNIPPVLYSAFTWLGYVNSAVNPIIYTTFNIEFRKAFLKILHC
# Vasoactive intestinal polypeptide receptor 1 (Homo sapiens), sequence (P32241 whole entry): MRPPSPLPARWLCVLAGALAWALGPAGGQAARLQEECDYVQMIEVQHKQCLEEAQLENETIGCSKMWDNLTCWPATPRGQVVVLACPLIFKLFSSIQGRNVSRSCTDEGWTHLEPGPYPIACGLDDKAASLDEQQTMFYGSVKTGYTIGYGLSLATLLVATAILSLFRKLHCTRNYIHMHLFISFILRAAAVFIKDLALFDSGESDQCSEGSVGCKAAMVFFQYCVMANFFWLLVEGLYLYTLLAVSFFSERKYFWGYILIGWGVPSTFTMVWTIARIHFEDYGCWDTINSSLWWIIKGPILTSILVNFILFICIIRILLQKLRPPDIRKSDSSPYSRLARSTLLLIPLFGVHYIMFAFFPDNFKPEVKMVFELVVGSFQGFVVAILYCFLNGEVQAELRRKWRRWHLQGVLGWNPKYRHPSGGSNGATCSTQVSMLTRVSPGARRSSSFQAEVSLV
# 5-hydroxytryptamine receptor 1B (Rattus norvegicus), sequence (P28564 whole entry): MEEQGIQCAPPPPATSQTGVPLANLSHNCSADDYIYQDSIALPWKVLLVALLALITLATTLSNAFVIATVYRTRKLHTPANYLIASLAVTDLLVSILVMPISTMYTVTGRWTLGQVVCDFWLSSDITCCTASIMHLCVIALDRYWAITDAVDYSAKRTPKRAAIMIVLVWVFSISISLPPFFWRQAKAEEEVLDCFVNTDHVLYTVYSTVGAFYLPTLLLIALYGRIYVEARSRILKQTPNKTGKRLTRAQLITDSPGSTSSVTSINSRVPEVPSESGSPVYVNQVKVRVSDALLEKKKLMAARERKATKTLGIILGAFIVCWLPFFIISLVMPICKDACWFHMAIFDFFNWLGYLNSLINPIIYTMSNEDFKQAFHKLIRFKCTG
smiles,measurement,setting,value
CC(C)(C)NS(=O)(=O)c1ccc(-c2sc(C(=O)N[C@H]3C[C@H](C(=O)O)C3)nc2CC2CCCCC2)c2ccccc12,inhibition,[1],81%
same,inhibition,[2],24%
same,inhibition,Histamine H2 receptor,< 10%
same,inhibition,[3],23%
same,inhibition,[4],< 10%
same,inhibition,[5],< 10%
same,inhibition,[6],< 10%
same,inhibition,[7],< 10%
same,inhibition,D(1A) dopamine receptor,< 10%
same,inhibition,[8],< 10%
same,inhibition,[9],< 10%
same,inhibition,[10],< 10%
same,inhibition,[11],< 10%
same,inhibition,Vasopressin V1a receptor,< 10%
same,inhibition,Rattus norvegicus,< 10%
same,IC50,[12],0.47 nM
same,IC50,D(2) dopamine receptor,1.8 nM
same,IC50,Histamine H1 receptor,1.7 nM
same,IC50,[13],0.012 nM
same,IC50,[14],6420 nM
same,IC50,[15],220 nM
same,inhibition,[16],2%
same,inhibition,[17],6%
same,inhibition,[18],-4%
same,inhibition,[19],1%
same,inhibition,[20],-7%
same,inhibition,[21],-3%
same,inhibition,[22],-4%
same,inhibition,[23],5%
same,inhibition,[24],-6%
same,solubility thermodynamic at 10000 µM,[25],< 1 µM
same,AUC(0-inf),[26],328 ng·h/mL
